Blank lines part the entries; values can stand above or below the compound they belong to.
Tested on: LG0703-F948-PDC complex spheroid viability
Assay: Anticancer human tumor LG0703-F948-PDC patient-derived lung adenocarcinoma cell line growth inhibition [RAS]
Conditions: for IC50: curve of first compound; for viability, T/C: stronger effect = lower value
Outline: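 Tumour cells grown as complex spheroids with HUVEC endothelial cells and mesenchymal stem cells, treated with RAS pathway inhibitor combinations. Each agent spans half-log steps from near clinical Cmax, or 10 microM where Cmax is unknown.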

[1] = second compound 0.000949 µM, first compound 0.0316 µM
[2] = second compound 0.000949 µM, first compound 0.1 µM
[3] = second compound 0.000949 µM, first compound 0.316 µM
[4] = second compound 0.000949 µM, first compound 1 µM
[5] = second compound 0.000949 µM, first compound 3.16 µM
[6] = second compound 0.000949 µM, first compound 10 µM
[7] = second compound 0.003 µM, first compound 0.0316 µM
[8] = second compound 0.003 µM, first compound 0.1 µM
[9] = second compound 0.003 µM, first compound 0.316 µM
[10] = second compound 0.003 µM, first compound 1 µM
[11] = second compound 0.003 µM, first compound 3.16 µM
[12] = second compound 0.003 µM, first compound 10 µM
[13] = second compound 0.00949 µM, first compound 0.0316 µM
[14] = second compound 0.00949 µM, first compound 0.1 µM
[15] = second compound 0.00949 µM, first compound 0.316 µM
[16] = second compound 0.00949 µM, first compound 1 µM
[17] = second compound 0.00949 µM, first compound 3.16 µM
[18] = second compound 0.00949 µM, first compound 10 µM
[19] = second compound 0.03 µM, first compound 0.0316 µM
[20] = second compound 0.03 µM, first compound 0.1 µM
[21] = second compound 0.03 µM, first compound 0.316 µM
[22] = second compound 0.03 µM, first compound 1 µM
[23] = second compound 0.03 µM, first compound 3.16 µM
[24] = second compound 0.03 µM, first compound 10 µM
[25] = second compound 0.0949 µM, first compound 0.0316 µM
[26] = second compound 0.0949 µM, first compound 0.1 µM
[27] = second compound 0.0949 µM, first compound 0.316 µM
[28] = second compound 0.0949 µM, first compound 1 µM
[29] = second compound 0.0949 µM, first compound 3.16 µM
[30] = second compound 0.0949 µM, first compound 10 µM
[31] = second compound 0.3 µM, first compound 0.0316 µM
[32] = second compound 0.3 µM, first compound 0.1 µM
[33] = second compound 0.3 µM, first compound 0.316 µM
[34] = second compound 0.3 µM, first compound 1 µM
[35] = second compound 0.3 µM, first compound 3.16 µM
[36] = second compound 0.3 µM, first compound 10 µM
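Further: spheroids exposed to agents for 7 days.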
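Wherever viability, T/C is given: 100% = DMSO vehicle wells.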

- IC50 (second compound 0.00316 µM): > 1 µM
- IC50 (second compound 0.01 µM): > 1 µM
- IC50 (second compound 0.0316 µM): > 1 µM
- IC50 (second compound 0.1 µM): > 1 µM
- IC50 (second compound 0.316 µM): > 1 µM
- IC50 (second compound 1 µM): > 1 µM
Compound: CCN1CCN(Cc2ccc(Nc3ncc(F)c(-c4cc(F)c5nc(C)n(C(C)C)c5c4)n3)nc2)CC1 + C=CC(=O)N1CCN(c2nc(OCC3CCCN3C)nc3c(F)c(-c4nc(N)cc(C)c4C(F)(F)F)c(Cl)cc23)C(C)C1
- viability, T/C (second compound 0.00316 µM, first compound 0.00316 µM): 106%
- viability, T/C (second compound 0.00316 µM, first compound 0.01 µM): 92.5%
- viability, T/C (second compound 0.00316 µM, first compound 0.0316 µM): 85.5%
- viability, T/C (second compound 0.00316 µM, first compound 0.1 µM): 74.7%
- viability, T/C (second compound 0.00316 µM, first compound 0.316 µM): 85.3%
- viability, T/C (second compound 0.00316 µM, first compound 1 µM): 66.9%
- viability, T/C (second compound 0.01 µM, first compound 0.00316 µM): 110%
- viability, T/C (second compound 0.01 µM, first compound 0.01 µM): 98.8%
- viability, T/C (second compound 0.01 µM, first compound 0.0316 µM): 89.8%
- viability, T/C (second compound 0.01 µM, first compound 0.1 µM): 86.5%
- viability, T/C (second compound 0.01 µM, first compound 0.316 µM): 81%
- viability, T/C (second compound 0.01 µM, first compound 1 µM): 71%
- viability, T/C (second compound 0.0316 µM, first compound 0.00316 µM): 108%
- viability, T/C (second compound 0.0316 µM, first compound 0.01 µM): 109%
- viability, T/C (second compound 0.0316 µM, first compound 0.0316 µM): 91.1%
- viability, T/C (second compound 0.0316 µM, first compound 0.1 µM): 79.7%
- viability, T/C (second compound 0.0316 µM, first compound 0.316 µM): 82.7%
- viability, T/C (second compound 0.0316 µM, first compound 1 µM): 61.7%
- viability, T/C (second compound 0.1 µM, first compound 0.00316 µM): 106%
- viability, T/C (second compound 0.1 µM, first compound 0.01 µM): 98.9%
- viability, T/C (second compound 0.1 µM, first compound 0.0316 µM): 92.5%
- viability, T/C (second compound 0.1 µM, first compound 0.1 µM): 78%
- viability, T/C (second compound 0.1 µM, first compound 0.316 µM): 84.3%
- viability, T/C (second compound 0.1 µM, first compound 1 µM): 68.9%
- viability, T/C (second compound 0.316 µM, first compound 0.00316 µM): 106%
- viability, T/C (second compound 0.316 µM, first compound 0.01 µM): 95.6%
- viability, T/C (second compound 0.316 µM, first compound 0.0316 µM): 89.6%
- viability, T/C (second compound 0.316 µM, first compound 0.1 µM): 81.5%
- viability, T/C (second compound 0.316 µM, first compound 0.316 µM): 78.7%
- viability, T/C (second compound 0.316 µM, first compound 1 µM): 64.3%
- viability, T/C (second compound 1 µM, first compound 0.00316 µM): 109%
- viability, T/C (second compound 1 µM, first compound 0.01 µM): 109%
- viability, T/C (second compound 1 µM, first compound 0.0316 µM): 108%
- viability, T/C (second compound 1 µM, first compound 0.1 µM): 81.2%
- viability, T/C (second compound 1 µM, first compound 0.316 µM): 87.4%
- viability, T/C (second compound 1 µM, first compound 1 µM): 65.3%

- IC50 (second compound 0.000949 µM): > 10 µM
- IC50 (second compound 0.003 µM): 9.07 µM
- IC50 (second compound 0.00949 µM): 9.59 µM
- IC50 (second compound 0.03 µM): > 10 µM
- IC50 (second compound 0.0949 µM): 6.58 µM
- IC50 (second compound 0.3 µM): 4.12 µM
Compound: CC1(O)CCCC1n1c(=O)c(C(F)F)cc2cnc(NC3CCN(S(C)(=O)=O)CC3)nc21 (stereo unspecified) + CCn1c(-c2cccnc2C(C)OC)c2c3cc(ccc31)N1CCOC(CC(NC(=O)C(C(C)C)N(C)C(=O)C3(F)CCN(C(=O)C#CC(C)(C)N(C)C)CC3)C(=O)N3CCCC(N3)C(=O)OCC(C)(C)C2)C1
- viability, T/C [1]: 112%
- viability, T/C [2]: 89.6%
- viability, T/C [3]: 97.3%
- viability, T/C [4]: 84.6%
- viability, T/C [5]: 85.4%
- viability, T/C [6]: 50%
- viability, T/C [7]: 114%
- viability, T/C [8]: 90.7%
- viability, T/C [9]: 108%
- viability, T/C [10]: 93.5%
- viability, T/C [11]: 82.2%
- viability, T/C [12]: 46.5%
- viability, T/C [13]: 88.9%
- viability, T/C [14]: 114%
- viability, T/C [15]: 94.1%
- viability, T/C [16]: 86.4%
- viability, T/C [17]: 87.5%
- viability, T/C [18]: 47.9%
- viability, T/C [19]: 112%
- viability, T/C [20]: 90.4%
- viability, T/C [21]: 90%
- viability, T/C [22]: 84.4%
- viability, T/C [23]: 87.8%
- viability, T/C [24]: 51.4%
- viability, T/C [25]: 90.5%
- viability, T/C [26]: 99.6%
- viability, T/C [27]: 85.8%
- viability, T/C [28]: 75.5%
- viability, T/C [29]: 78.6%
- viability, T/C [30]: 36%
- viability, T/C [31]: 54.8%
- viability, T/C [32]: 56.4%
- viability, T/C [33]: 58.2%
- viability, T/C [34]: 57.4%
- viability, T/C [35]: 62.3%
- viability, T/C [36]: 23.9%

- IC50 (second compound 0.000949 µM): < 0.0316 µM
- IC50 (second compound 0.003 µM): < 0.0316 µM
- IC50 (second compound 0.00949 µM): < 0.0316 µM
- IC50 (second compound 0.03 µM): < 0.0316 µM
- IC50 (second compound 0.0949 µM): < 0.0316 µM
- IC50 (second compound 0.3 µM): < 0.0316 µM
Compound: NC1c2ccccc2OC12CCN(c1cnc3c(N4CCCc5ncccc54)n[nH]c3n1)CC2 (stereo unspecified) + CCn1c(-c2cc(N3CCN(C)CC3)cnc2C(C)OC)c2c3cc(ccc31)-c1csc(n1)CC(NC(=O)C1CC1C)C(=O)N1CCCC(N1)C(=O)OCC(C)(C)C2
- viability, T/C [1]: 30.3%
- viability, T/C [2]: 19.3%
- viability, T/C [3]: 11%
- viability, T/C [4]: 8.58%
- viability, T/C [5]: 5.25%
- viability, T/C [6]: 1.78%
- viability, T/C [7]: 20.3%
- viability, T/C [8]: 11.8%
- viability, T/C [9]: 9.37%
- viability, T/C [10]: 8.15%
- viability, T/C [11]: 3.56%
- viability, T/C [12]: 1.82%
- viability, T/C [13]: 14.5%
- viability, T/C [14]: 7.88%
- viability, T/C [15]: 5.28%
- viability, T/C [16]: 4.34%
- viability, T/C [17]: 2.68%
- viability, T/C [18]: 2.25%
- viability, T/C [19]: 8.5%
- viability, T/C [20]: 6.42%
- viability, T/C [21]: 4.71%
- viability, T/C [22]: 2.66%
- viability, T/C [23]: 2.29%
- viability, T/C [24]: 2.1%
- viability, T/C [25]: 6.81%
- viability, T/C [26]: 4.57%
- viability, T/C [27]: 4.01%
- viability, T/C [28]: 2.85%
- viability, T/C [29]: 3.37%
- viability, T/C [30]: 1.78%
- viability, T/C [31]: 3.46%
- viability, T/C [32]: 4.3%
- viability, T/C [33]: 3.62%
- viability, T/C [34]: 2.74%
- viability, T/C [35]: 1.58%
- viability, T/C [36]: 1.7%

Reference: PubChem BioAssay AID2060890 (Molecular Pharmacology Branch, DTP, NCI, 2025)
